Measured values as given in patent publication US20240376094A2, “SELECTIVE BCL-XL PROTAC COMPOUNDS AND METHODS OF USE” (Les Laboratoires Servier, priority 2021, published 2024).

How the values were obtained:
Type in all cases: cell-based
MOLT-4 cells [1] = assay: MOLT-4 cell viability, MTT assay; settings: Homo sapiens, MOLT-4, 48 h
Method in brief: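 MOLT-4 cells in RPMI 1640 with 10% FBS were exposed to compounds for 48 h at 9 concentrations (3.16-fold dilutions, triplicates). After 4 h with MTT and overnight SDS/HCl solubilisation, absorbance was read at 540 nm. IC50 came from four-parameter fits versus control, as the mean of ≥2 independent experiments.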

Bcl-xL = molecular target: T1, Bcl-xL (Homo sapiens, UniProt Q07817); assay: HCT116 Bcl-xL degradation, capillary-based immunoassay (WES); settings: for DC50: HCT116, 24 h, 9-point serial dilution; for remaining activity at 0.01 µM / remaining activity at 0.1 µM: HCT-116, 24 h, % of untreated cells; for remaining activity at 0.01 µM: HCT116, 10 nM; for remaining activity at 0.1 µM: HCT116, 100 nM
T1 construct: Measured levels of Bcl-xL protein of HCT116 cells treated with the tested compounds; host or cells: HCT116
T1 sequence (Q07817 whole entry): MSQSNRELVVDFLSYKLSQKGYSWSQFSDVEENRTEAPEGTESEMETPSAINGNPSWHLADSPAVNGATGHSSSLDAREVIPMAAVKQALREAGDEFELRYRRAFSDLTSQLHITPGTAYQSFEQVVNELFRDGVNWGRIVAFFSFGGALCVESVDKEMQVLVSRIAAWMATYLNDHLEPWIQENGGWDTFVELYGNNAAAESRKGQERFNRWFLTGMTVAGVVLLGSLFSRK
Method in brief: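 HCT116 cells treated 24 h with compound at 10/100 nM and/or 9-point dilution (quadruplicates), then lysed. Bcl-xL measured by capillary WES immunoassay, normalized to cofilin and expressed as % of untreated cells. DC50 from four-parameter curve fit.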

[2] = test system: EBC-1 lung cancer cell line; assay: EBC-1 cell proliferation, CellTiter-Glo assay; settings: Homo sapiens, 120 h; Ebc-1 cell viability, CTG assay, 5 days of treatment; read-out: CTG 5 day Ebc1 GI50
Method in brief: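 EBC-1 cells seeded at 1000 per well overnight, then exposed to 10-point dilutions (0.508 nM–10 μM final) for 5 days at 37 °C, in triplicate. ATP luminescence by CellTiter-Glo, normalised to untreated wells; GI50 from four-parameter logistic fit, runs valid only with at least one doubling.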

HiBiT-tagged BCL-xL = molecular target: T2, HiBiT-tagged BCL-xL (Homo sapiens, UniProt Q07817); assay: NCI-H1650 BCL-xL protein levels, Nano-Glo HiBiT Lytic Detection; settings: NCI-H1650 expressing HiBiT-tagged BCL-xL, overnight incubation, read-out: Bcl-xl HIBIT NCIH1650 DC50
T2 construct: expressed in transfected cells; host or cells: NCI-H1650 (ATCC No. CRL-5883), engineered HiBiT cell line
T2 sequence (Q07817 whole entry): as above
Method in brief: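 NCI-H1650 cells expressing HiBiT-tagged BCL-xL (5000/well) were treated overnight at 37° C with 10 concentrations, final 0.508 nM-10 μM, in triplicate. Remaining BCL-xL measured by Nano-Glo HiBiT lytic luminescence, normalized to untreated cells; 50% values by four-parameter logistic fit.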

MOLT-4 cells [3] = assay: MOLT-4 cell viability, CTG assay; settings: Homo sapiens, MOLT-4, 48 h
Method in brief: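 Cells grown in RPMI 1640 with 10% FBS at 37° C, 5% CO2, then exposed to compounds for 48 h (11-point 5-fold dilution, triplicates). ATP measured by CellTiter-Glo luminescence; IC50 from four-parameter fit versus control, mean of ≥2 independent experiments.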

Row | Structure (SMILES) | IC50 (MOLT-4 cells [1]) [nM] | DC50 (Bcl-xL) [nM] | remaining activity at 0.01 µM (Bcl-xL) [%] | remaining activity at 0.1 µM (Bcl-xL) [%] | GI50 [2] [nM] | DC50 (HiBiT-tagged BCL-xL) [nM] | IC50 (MOLT-4 cells [3]) [nM]
1 | Cc1c(Nc2nc3ccccc3s2)nnc2c1CCCN2c1ccc(-c2cnn(CC34CC5(C)CC(C)(C3)CC(OCCN(C)CCCCCCCCCCOc3ccc6c(c3)C(=O)N(C3CCC(=O)NC3=O)C6=O)(C5)C4)c2C)c(C(=O)O)n1 (stereo not drawn) [Example 60, 6-[3-(1,3-benzothiazol-2-ylamino)-4-methyl-6,7-dihydro-5H-pyrido[2,3-c]pyridazin-8-yl]-3-[1-[[3-[2-[10-[2-(2,6-dioxo-3-piperidyl)-1,3-dioxo-isoindolin-5-yl]oxydecyl-methyl-amino]ethoxy]-5,7-dimethyl-1-adamantyl]methyl]-5-methyl-pyrazol-4-yl]pyridine-2-carboxylic acid] | 0.717 | 0.11 | 19 | 23 | 1 | > 1670 | –
2 | Cc1ncsc1-c1ccc(CNC(=O)[C@@H]2C[C@@H](O)CN2C(=O)[C@@H](NC(=O)C2(F)CC2)C(C)(C)C)c(OCCCCCCCCN(C)CCOC23CC4(C)CC(C)(CC(Cn5ncc(-c6ccc(N7CCCc8c7nnc(Nc7nc9ccccc9s7)c8C)nc6C(=O)O)c5C)(C4)C2)C3)c1 [Example 138, 6-[3-(1,3-benzothiazol-2-ylamino)-4-methyl-6,7-dihydro-5H-pyrido[2,3-c]pyridazin-8-yl]-3-[1-[[3-[2-[8-[2-[[[(2S,4R)-1-[(2S)-2-[(1-fluorocyclopropanecarbonyl)amino]-3,3-dimethyl-butanoyl]-4-hydroxy-pyrrolidine-2-carbonyl]amino]methyl]-5-(4-methylthiazol-5-yl)phenoxy]octyl-methyl-amino]ethoxy]-5,7-dimethyl-1-adamantyl]methyl]-5-methyl-pyrazol-4-yl]pyridine-2-carboxylic acid] | 3.31 | 21.2 | – | – | – | > 1670 | –
3 | Cc1c(Nc2nc3ccccc3s2)nnc2c1CCCN2c1ccc(-c2cnn(CC34CC5(C)CC(C)(C3)CC(OCCN(C)CCOCCNc3cccc6c3C(=O)N(C3CCC(=O)NC3=O)C6=O)(C5)C4)c2C)c(C(=O)O)n1 (stereo not drawn) [Example 9, 6-[3-(1,3-benzothiazol-2-ylamino)-4-methyl-6,7-dihydro-5H-pyrido[2,3-c]pyridazin-8-yl]-3-[1-[[3-[2-[2-[2-[[2-(2,6-dioxo-3-piperidyl)-1,3-dioxo-isoindolin-4-yl]amino]ethoxy]ethyl-methyl-amino]ethoxy]-5,7-dimethyl-1-adamantyl]methyl]-5-methyl-pyrazol-4-yl]pyridine-2-carboxylic acid] | 5.21 | 10.5 | 61 | 41 | – | – | 12.9
4 | Cc1cc(N(CCCCCn2cc(CCCCCCCNC(=O)COc3cccc4c3C(=O)N(C3CCC(=O)NC3=O)C4=O)nn2)c2ccc(-c3cnn(CC45CC6(C)CC(C)(C4)CC(OCCN(C)C)(C6)C5)c3C)c(C(=O)O)n2)nnc1Nc1nc2ccccc2s1 (stereo not drawn) [Example 64, 6-[[6-(1,3-benzothiazol-2-ylamino)-5-methyl-pyridazin-3-yl]-[5-[4-[7-[[2-[2-(2,6-dioxo-3-piperidyl)-1,3-dioxo-isoindolin-4-yl]oxyacetyl]amino]heptyl]triazol-1-yl]pentyl]amino]-3-[1-[[3-[2-(dimethylamino)ethoxy]-5,7-dimethyl-1-adamantyl]methyl]-5-methyl-pyrazol-4-yl]pyridine-2-carboxylic acid] | 92.8 | 46.2 | 59 | 40 | – | – | 118
5 | Cc1c(Nc2nc3ccccc3s2)nnc2c1CCCN2c1ccc(-c2cnn(CC34CC5(C)CC(C)(C3)CC(OCCN(C)CCOCCOCCOCCNc3cccc6c3C(=O)N(C3CCC(=O)NC3=O)C6=O)(C5)C4)c2C)c(C(=O)O)n1 (stereo not drawn) [Example 11, 6-[3-(1,3-benzothiazol-2-ylamino)-4-methyl-6,7-dihydro-5H-pyrido[2,3-c]pyridazin-8-yl]-3-[1-[[3-[2-[2-[2-[2-[2-[[2-(2,6-dioxo-3-piperidyl)-1,3-dioxo-isoindolin-4-yl]amino]ethoxy]ethoxy]ethoxy]ethyl-methyl-amino]ethoxy]-5,7-dimethyl-1-adamantyl]methyl]-5-methyl-pyrazol-4-yl]pyridine-2-carboxylic acid] | 4.29 | – | 83 | 60 | – | – | 20.3
6 | Cc1c(Nc2nc3ccccc3s2)nnc2c1CCCN2c1ccc(-c2cnn(CC34CC5(C)CC(C)(C3)CC(OCCN(C)CCCCCCOc3ccc6c(c3)C(=O)N(C3CCC(=O)NC3=O)C6=O)(C5)C4)c2C)c(C(=O)O)n1 (stereo not drawn) [Example 14, 6-[3-(1,3-benzothiazol-2-ylamino)-4-methyl-6,7-dihydro-5H-pyrido[2,3-c]pyridazin-8-yl]-3-[1-[[3-[2-[6-[2-(2,6-dioxo-3-piperidyl)-1,3-dioxo-isoindolin-5-yl]oxyhexyl-methyl-amino]ethoxy]-5,7-dimethyl-1-adamantyl]methyl]-5-methyl-pyrazol-4-yl]pyridine-2-carboxylic acid] | 1.15 | – | 81 | 86 | – | – | 3.51
7 | CNCC#Cc1ccc(OCCCc2sc(N(CCCc3cn(CCOCCOCCOCCOCCOCCC(=O)N[C@H](C(=O)N4C[C@H](O)C[C@H]4C(=O)NCc4ccc(-c5scnc5C)cc4)C(C)(C)C)nn3)c3cc(C)c(Nc4nc5ccccc5s4)nn3)nc2C(=O)O)c(F)c1 [Example 29, 2-[[6-(1,3-benzothiazol-2-ylamino)-5-methyl-pyridazin-3-yl]-[3-[1-[2-[2-[2-[2-[2-[3-[[(1S)-1-[(2S,4R)-4-hydroxy-2-[[4-(4-methylthiazol-5-yl)phenyl]methylcarbamoyl]pyrrolidine-1-carbonyl]-2,2-dimethyl-propyl]amino]-3-oxo-propoxy]ethoxy]ethoxy]ethoxy]ethoxy]ethyl]triazol-4-yl]propyl]amino]-5-[3-[2-fluoro-4-[3-(methylamino)prop-1-ynyl]phenoxy]propyl]thiazole-4-carboxylic acid] | 875 | – | 64 | 67 | – | – | 1630
8 | CNCC#Cc1ccc(OCCCc2sc(N(CCCc3cn(CCCCCCCCNC(=O)COc4cccc5c4C(=O)N(C4CCC(=O)NC4=O)C5=O)nn3)c3cc(C)c(Nc4nc5ccccc5s4)nn3)nc2C(=O)O)c(F)c1 (stereo not drawn) [Example 30, 2-[[6-(1,3-benzothiazol-2-ylamino)-5-methyl-pyridazin-3-yl]-[3-[1-[8-[[2-[2-(2,6-dioxo-3-piperidyl)-1,3-dioxo-isoindolin-4-yl]oxyacetyl]amino]octyl]triazol-4-yl]propyl]amino]-5-[3-[2-fluoro-4-[3-(methylamino)prop-1-ynyl]phenoxy]propyl]thiazole-4-carboxylic acid] | 133 | – | 118 | 73 | – | – | 477
9 | Cc1c(Nc2nc3ccccc3s2)nnc2c1CCCN2c1ccc(-c2cnn(CC34CC5(C)CC(C)(C3)CC(OCCN(C)CCOCCOCCOCCOCCOCCNc3cccc6c3C(=O)N(C3CCC(=O)NC3=O)C6=O)(C5)C4)c2C)c(C(=O)O)n1 (stereo not drawn) [Example 13, 6-[3-(1,3-benzothiazol-2-ylamino)-4-methyl-6,7-dihydro-5H-pyrido[2,3-c]pyridazin-8-yl]-3-[1-[[3-[2-[2-[2-[2-[2-[2-[2-[[2-(2,6-dioxo-3-piperidyl)-1,3-dioxo-isoindolin-4-yl]amino]ethoxy]ethoxy]ethoxy]ethoxy]ethoxy]ethyl-methyl-amino]ethoxy]-5,7-dimethyl-1-adamantyl]methyl]-5-methyl-pyrazol-4-yl]pyridine-2-carboxylic acid] | 13.5 | – | 79 | 57 | – | – | 33.9
